Test results published in PubChem BioAssay AID463203 (Broad Institute, 2010).
Calls of active or inactive are those of the source.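 The calls were made as follows: active = more than half of replicate measurements showing over 20% loss of kinase signal relative to plate controls; inconclusive = some but at most half of replicates over 20% loss; inactive = no replicate over 20% signal loss.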

Target: Glycogen synthase kinase-3 alpha (Homo sapiens) (UniProt P49840)
Assay: concentration-response blocking of human GSK3A – biochemical, luminescence, cell-free homogeneous, retest, dose response (AID 463203)
Conditions: GSK-3 alpha enzyme, ADP-Glo luminescence, 60 min

Glycogen synthase kinase-3 alpha (Homo sapiens), sequence (P49840 whole entry, looked up): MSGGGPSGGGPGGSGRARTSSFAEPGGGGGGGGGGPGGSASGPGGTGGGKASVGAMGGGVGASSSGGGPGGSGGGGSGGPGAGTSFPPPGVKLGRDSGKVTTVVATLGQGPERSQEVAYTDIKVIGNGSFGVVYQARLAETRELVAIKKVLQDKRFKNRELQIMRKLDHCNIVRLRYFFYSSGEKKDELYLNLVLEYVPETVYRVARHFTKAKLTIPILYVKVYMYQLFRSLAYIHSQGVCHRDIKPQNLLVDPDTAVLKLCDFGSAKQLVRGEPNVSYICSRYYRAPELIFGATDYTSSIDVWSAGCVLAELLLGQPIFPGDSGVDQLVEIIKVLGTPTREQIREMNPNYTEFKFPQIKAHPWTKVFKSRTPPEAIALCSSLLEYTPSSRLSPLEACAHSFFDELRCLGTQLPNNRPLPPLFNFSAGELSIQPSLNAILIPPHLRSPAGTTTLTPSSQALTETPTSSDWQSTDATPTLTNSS

In the case of CC(=O)Oc1cc(O)c2c(=O)c(OC(C)=O)c(-c3ccc(OC(C)=O)c(OC(C)=O)c3)oc2c1, the AC50 is reported as 15.4 µM.

In the case of Fc1ccc(/C=N/Nc2cc(N3CCOCC3)ncn2)cc1, the AC50 is reported as > 30 µM (inactive).

For CCN1CCN(c2c(Cl)cccc2NC(=O)c2ccc(Br)o2)CC1, the AC50 was 2.59 µM.

Work on O=c1[nH]c(=S)n(CCC2=CCCCC2)c(O)c1C=NCCCn1ccnc1 yielded an AC50 of 14.3 µM.

For CCCC(NS(=O)(=O)c1ccc(OC)cc1)C(=O)O (centres undefined), the AC50 was > 30 µM (inactive).

With COc1ccccc1Nc1nc(C)cc(C)n1 the AC50 was > 30 µM (inactive).

Cc1c(C(=O)OCCOC(C)C)[nH]c2c1C(=O)CC(C)(C)C2 was tested, and the AC50 was 25.4 µM.

With CC1=C(C(=O)OC(C)C)C(c2cccc(F)c2)n2ncnc2N1 (centres undefined) the AC50 was > 30 µM (inactive).

For Cc1cc(C)nc(NC(=O)/C=C/c2cccs2)c1, the AC50 was > 30 µM (inactive).

CN(C)Cc1c(C(=O)N/N=C/c2ccc(-c3ccccc3)cc2)nnn1-c1nonc1N was tested, and the AC50 was > 30 µM (inactive).

Cc1ccc(N=c2oc3cc(O)ccc3cc2C(N)=O)cc1 gave an AC50 of 2.17 µM.

Nc1nnc(SCC(=O)Nc2sc3c(c2C(=O)c2ccccc2)CCCC3)s1 was tested, and the AC50 was > 30 µM (inactive).

N/C(=N\OC(=O)c1ccc2ccccc2c1)c1cccc([N+](=O)[O-])c1 was tested, and the AC50 was > 30 µM (inactive).

In the case of CCn1c(=O)[nH]c(=O)c2c(N)c(C(=O)c3ccccc3OC)sc21, the AC50 is reported as 16.8 µM.

CC1(C)CC(=O)C2=C(C1)Nc1[nH]n(-c3ccccc3)c(=O)c1C2c1ccc2c(c1)OCO2 (centres undefined) was tested, and the AC50 was > 30 µM (inactive).

Work on Fc1ccccc1-c1n[nH]c(=S)n1/N=C/c1c[nH]c2ccccc12 yielded an AC50 of 22.5 µM.

For COc1ccc(C2=Nn3c(nnc3-c3ccncc3)SC2)cc1, the AC50 was 5.49 µM.

For Nc1cccc(C(=O)O)c1, the AC50 was > 30 µM (inactive).

Cc1ccc(Cc2c(C)nc3nc(SCC(=O)NCCCN4CCCCCC4)nn3c2C)cc1 was tested, and the AC50 was > 30 µM (inactive).

With CC(=O)c1cccc(NC(=S)NC(=O)CC(C)C)c1 the AC50 was > 30 µM (inactive).

In the case of O=Nc1c(-c2c(O)[nH]c3cc(Br)ccc23)[nH]c2ccccc12, the AC50 is reported as under 0.0135 µM.

In the case of O=C(c1ccco1)c1cn(CC(=O)N2CCCC2)c2ccccc12, the AC50 is reported as > 30 µM (inactive).

In the case of COc1ccc(-c2oc3cc(O)c(OC)c(O)c3c(=O)c2OC)cc1, the AC50 is reported as > 30 µM (inactive).

For Cc1ccccc1CSc1nnc(-c2ccncc2)n1C, the AC50 was > 30 µM (inactive).

For O=C(Nc1ccccc1N1CCOCC1)c1ccc(S(=O)(=O)NCc2ccco2)cc1, the AC50 was > 30 µM (inactive).

For COc1ccccc1NC(=O)CCSc1nnc(-c2ccc(O)cc2)o1, the AC50 was 8.24 µM.

CNc1nnc(-c2cc3ccccc3oc2=O)s1 was tested, and the AC50 was 8.99 µM.

For COc1ccc(C2C3(C#N)C(N)=NC(OC)(OC)C23C#N)cc1 (centres undefined), the AC50 was > 30 µM (inactive).

Cc1ccc(O)c(C(=O)c2coc(=N)c(C(=O)NC(C)C)c2)c1 showed an AC50 of 22.1 µM.

CCOc1cc(/C=C2\SC(N3CCCC(C)C3)=NC2=O)ccc1O (centres undefined) showed an AC50 of 8.87 µM.

In the case of Cc1cccc(C)c1OCC(=O)N=Nc1c(O)[nH]c2ccc(Br)cc12, the AC50 is reported as > 30 µM (inactive).

With Cc1nc(Nc2ccc(F)cc2)nc(Nc2ccc(F)cc2)c1[N+](=O)[O-] the AC50 was > 30 µM (inactive).

Work on Cc1cc(C(=O)c2cccs2)c(N)s1 yielded an AC50 of 15.6 µM.

With COc1ccc(NC(=O)c2nnn(Cc3cccc(F)c3)c2N)c(OC)c1 the AC50 was > 30 µM (inactive).

With O=C(O)COc1ccccc1/C=N/NC(=O)CSc1nnc(SCc2ccccc2)s1 the AC50 was > 30 µM (inactive).

With C[n+]1cccc(/C=N/Nc2nc(Cl)c(C#N)c(Cl)c2Cl)c1 the AC50 was > 30 µM (inactive).

O=c1cc(-c2ccco2)oc2c1ccc1ccccc12 was tested, and the AC50 was 7.17 µM.

CCOC(=O)c1nnn(-c2nonc2N)c1COc1cc(C)c(Cl)c(C)c1 was tested, and the AC50 was 6.9 µM.

In the case of COC(=O)c1c(C)c(OC(=O)c2c(C)cc(O)c(C=O)c2O)cc(C)c1O, the AC50 is reported as > 30 µM (inactive).

In the case of FC(F)(F)c1cnc(N/N=C/c2ccncc2)c(Cl)c1, the AC50 is reported as > 30 µM (inactive).

CC(C)NC(=O)/C(=C\c1cccc([N+](=O)[O-])c1)NC(=O)c1ccccc1 was tested, and the AC50 was > 30 µM (inactive).

For COc1cccc(CN2CCN(Cc3cc(OC)c(OC)cc3[N+](=O)[O-])CC2)c1, the AC50 was > 30 µM (inactive).

O=C(O)COc1c(Cl)cc(/C=C2/NC(=O)NC2=O)cc1Br showed an AC50 of 23 µM.

For NC(=O)c1c(NC(=O)C(=O)N2CCOCC2)sc2c1CCC2, the AC50 was > 30 µM (inactive).

In the case of COc1ccccc1N=c1oc2cc(O)ccc2cc1C(N)=O, the AC50 is reported as 4.68 µM.

With COC1(OC)N=C(N)C2(C#N)C(c3ccc(C)cc3)C12C#N (centres undefined) the AC50 was > 30 µM (inactive).

For Cc1ccc(C(=O)N/C(=C/c2ccc(-c3cccc([N+](=O)[O-])c3)o2)C(=O)NC(C)C)cc1, the AC50 was > 30 µM (inactive).

COc1ccc(/C=N/NC(=O)c2nnn(-c3nonc3N)c2CN(C)c2ccccc2)cc1 was tested, and the AC50 was > 30 µM (inactive).

Work on N#Cc1sc2nc3c(c(-c4ccco4)c2c1N)CCCC3 yielded an AC50 of 2.42 µM.

In the case of COc1ccccc1C(=O)NC(C)c1ccccc1 (centres undefined), the AC50 is reported as > 30 µM (inactive).

N#Cc1c2ccc(O)cc2n2ccccc12 was tested, and the AC50 was 3.56 µM.

In the case of COCCNc1nc(N)c([N+](=O)[O-])c(NCc2ccccc2)n1, the AC50 is reported as 7.15 µM.

In the case of COCCCNc1ncnc2nc[nH]c12, the AC50 is reported as > 30 µM (inactive).

In the case of CN1/C(=C\C=C(/C#N)C(=O)Nc2ccccc2F)C(C)(C)c2ccccc21, the AC50 is reported as > 30 µM (inactive).

COC(=O)c1oc2ccc(Br)cc2c1NC(=O)c1ccccc1 was tested, and the AC50 was > 30 µM (inactive).

In the case of CCCC(=O)NC(=S)Nc1cccc(C(C)=O)c1, the AC50 is reported as > 30 µM (inactive).

O=c1[nH]c(=O)n(Cc2ccc(F)cc2)c(O)c1C=NCCCn1ccnc1 was tested, and the AC50 was > 30 µM (inactive).

In the case of CC1CCN(Cc2c(C(=O)N/N=C/c3cccc(Cl)c3)nnn2-c2nonc2N)CC1, the AC50 is reported as 2.73 µM.

COC(=O)C1=C(C(=O)OC)C(c2cc(Cl)ccc2O)c2sc(=O)[nH]c2S1 (centres undefined) was tested, and the AC50 was 28.4 µM.

For CC1(C)Oc2ccc3ccc(=O)oc3c2-c2cn[nH]c21, the AC50 was 7.97 µM.

With CCN1CCN(c2nc(Nc3ccccc3F)nc(N)c2[N+](=O)[O-])CC1 the AC50 was > 30 µM (inactive).

NC(=O)c1cn(C2OC(CO)C(O)C2O)c2ncnc(N)c12 (centres undefined) was tested, and the AC50 was 6.52 µM.

In the case of CC(C)(C)OC(=O)N1CCC(NC(=O)c2[nH]cnc2C(=O)Nc2ccon2)CC1, the AC50 is reported as 4.47 µM.

For CN1/C(=C/C=C(C#N)C#N)C(C)(C)c2ccccc21, the AC50 was > 30 µM (inactive).

In the case of CCOc1ccc(S(=O)(=O)Nc2cccc(C(=O)NCCCn3ccnc3)c2)cc1, the AC50 is reported as > 30 µM (inactive).

For O=C(Nc1ccc(Cl)cn1)c1cccc(S(=O)(=O)N2CCOCC2)c1, the AC50 was > 30 µM (inactive).

With COCCNc1nc(C)cc(-c2cc(C(=O)NC3CCCC3)on2)n1 the AC50 was > 30 µM (inactive).

With CCOC(=O)c1c(C)c[nH]c1C the AC50 was > 30 µM (inactive).

For Cc1ccc(OCc2nnnn2-c2ccccc2)cc1, the AC50 was > 30 µM (inactive).

With COC1(OC)N=C(NC(=O)Nc2ccccc2)C2(C#N)C(c3ccccc3)C12C#N (centres undefined) the AC50 was > 30 µM (inactive).

In the case of COc1ccc(NC(=O)CSc2nc3[nH]ncc3c(=O)n2-c2ccccc2OC)cc1OC, the AC50 is reported as > 30 µM (inactive).

For O=C(Nc1cccc(-c2nc3cccnc3s2)c1)c1cccnc1Cl, the AC50 was 8.59 µM.

In the case of CC(Oc1ccccc1)C(=O)Nc1nnc(C2CCCCC2)s1 (centres undefined), the AC50 is reported as > 30 µM (inactive).

Cc1c(C(=O)OC(C)C)[nH]c2c1C(=O)CCC2 was tested, and the AC50 was > 30 µM (inactive).

For Clc1ccc(N/N=C/c2ccncc2)cc1Cl, the AC50 was > 30 µM (inactive).

Cc1cc(N2CCN(c3ccccc3)CC2)n2ncnc2n1 was tested, and the AC50 was > 30 µM (inactive).

In the case of O=c1[nH]c(=S)n(Cc2ccc(F)cc2)c(O)c1C=NCCCn1ccnc1, the AC50 is reported as > 30 µM (inactive).

In the case of O=c1[nH]nc(SCCS(=O)(=O)c2ccc(F)cc2)n1-c1ccccc1, the AC50 is reported as 22.9 µM.

CCCOc1ccc(-c2nnc(N)s2)cc1 was tested, and the AC50 was > 30 µM (inactive).

In the case of Cc1ccccc1Cn1c(-c2ccc(=O)[nH]c2)nc2ccccc21, the AC50 is reported as > 30 µM (inactive).

Compound Cc1cnc(NC(=O)C2COc3ccccc3O2)s1 (centres undefined) has an AC50 of 19.2 µM.

For O=c1c2ccccc2oc2ccc(NCCCn3ccnc3)cc12, the AC50 was > 30 µM (inactive).

For O=C(Nc1ccc(Cl)c([N+](=O)[O-])c1)c1ccc(NCCCN2CCOCC2)c([N+](=O)[O-])c1, the AC50 was > 30 µM (inactive).

For COc1ccc(-c2noc(CSc3nc(-c4ccccc4)cc(=O)[nH]3)n2)cc1OC, the AC50 was > 30 µM (inactive).

For N#Cc1c(Nc2ccccc2)c(/C=N/N=C/c2ccccc2)c[nH]c1=O, the AC50 was > 30 µM (inactive).

For O=C(NCCCN1CCOCC1)c1ccc(Cl)cc1[N+](=O)[O-], the AC50 was > 30 µM (inactive).

Compound Cc1sc2nc(SCC(=O)Nc3ccc(S(=O)(=O)NCCCC(=O)O)cc3)[nH]c(=O)c2c1C has an AC50 of 7.13 µM.

With O=[N+]([O-])c1ccc(-c2nnc(CNC3CCCC3)o2)cc1 the AC50 was > 30 µM (inactive).

For COCCNC(=O)Cn1cnc([N+](=O)[O-])n1, the AC50 was > 30 µM (inactive).

With CN(C)c1ccc(Nc2nc(N)c3ccccc3n2)cc1 the AC50 was 18.2 µM.

In the case of c1ccc2sc(-c3ccc4c(c3)OCO4)nc2c1, the AC50 is reported as > 30 µM (inactive).

In the case of Cc1cccc(NC(=O)c2sc3nc4c(c(-c5cccs5)c3c2N)CN(C)CC4)c1, the AC50 is reported as > 30 µM (inactive).

In the case of CC(=O)c1sc(NC(=O)CN2C(=O)NC3(CCCC3)C2=O)nc1-c1ccccc1, the AC50 is reported as 20.7 µM.

For COc1ccc(-c2cc(C(F)(F)F)nc(SCC(=O)NCc3cccs3)n2)cc1, the AC50 was > 30 µM (inactive).

With COc1cc(/C=N\NC(=O)c2ccc(-c3ccccc3)cc2)cc(Br)c1O the AC50 was > 30 µM (inactive).

For CN(c1ccccc1)c1nc(N)c([N+](=O)[O-])c(Nc2ccccc2F)n1, the AC50 was > 30 µM (inactive).

With Fc1ccc(/C=N/Nc2nc3ccccc3[nH]2)cc1F the AC50 was > 30 µM (inactive).

With CC(C)(C)OC(=O)N1CCC(NC(=O)c2[nH]cnc2C(=O)Nc2ccc(Cl)cc2)CC1 the AC50 was > 30 µM (inactive).

With COc1cccc(Cn2nnc(C(=O)Nc3cc(Cl)ccc3OC)c2N)c1 the AC50 was > 30 µM (inactive).

With Cc1cc(OC(=O)c2c(C)cc(OC(=O)c3c(C)cc(O)cc3O)cc2O)cc(O)c1C(=O)O the AC50 was > 30 µM (inactive).

For Cc1cc2oc(C(=O)NCCc3ccc(S(N)(=O)=O)cc3)c(C)c2cc1C, the AC50 was > 30 µM (inactive).

For COc1cc(C(=O)NNC(=O)C2CSC3(C)CCC(=O)N23)cc(OC)c1OC (centres undefined), the AC50 was > 30 µM (inactive).

O=C(CSc1ccc2nnc(-c3ccc(F)cc3)n2n1)N1CCCc2ccccc21 gave an AC50 of 0.98 µM.

For Cc1nnc(NC(=O)c2cccc(S(=O)(=O)N3CC(c4ccccc4)CC3=O)c2)s1 (centres undefined), the AC50 was > 30 µM (inactive).
